Laboratory results: publication PMC8292346, “Dysfunction of the key ferroptosis-surveilling systems hypersensitizes mice to tubular necrosis during acute kidney injury” (Nature Communications, 2021)
Several values for one entry are separate records, joined by “and”; a condition that tells them apart may be missing. Identical values can stand only once. Like-named read-outs stand apart in the source and are kept apart here.

Tests used:
[1] = tested on: Mouse cortical tubule cells (MCT); assay: FINs/ferroptocide, 7-AAD/annexin V flow cytometry; format: cell-based; settings: MCT, alone (DMSO) or with Fer-1 1 µM, Nec-1s 30 µM, Nec-1f 30 µM
Description: (§1) To induce necroptosis in a human cell line, HT29 cells were stimulated at the indicated time points with 20 ng/ml human TNFα (Biolegend), 1 μM SMAC-mimetics (Birinapant, Chemietek), and 20 μM zVAD-fmk (Selleckchem, herein referred to as zVAD). For the induction of necroptosis in NIH3T3 cells, cells were incubated with 20 ng/ml TNF-α and 20 μM zVAD for indicated time points. […] Cells were seeded in six-well plates or petri dishes. […] After indicated time points, cells were collected and prepared for flow cytometry, immunoblotting, and/or LDH release assays.
(§2) Cells were harvested and the pellets were washed twice in PBS and stained with 5 μl of 7-AAD (BD Biosciences) and 5 μl of annexin-V-FITC (BD Biosciences) added to 100 μl annexin-V binding buffer (BD Biosciences). After 15 min, cells were recorded on the LSRII with the FACS Diva 6.1.1 software (BD Biosciences) and subsequently analyzed with the FlowJo v10 software (Tree Star).

HT1080 cells [2] = assay: Ferroptosis inducers (FINs)/ferroptocide, 7-AAD/annexin V flow cytometry; format: cell-based, human
NIH3T3 cells [3] = assay: as above; format: cell-based, murine; settings: NIH3T3, 10 µM FIN56 24 h, alone (DMSO) or with Fer-1 1 µM, Nec-1s 30 µM, Nec-1f 30 µM
Description: as §1, §2

CD10-135 cells = assay: FINs/ferroptocide, LDH release assay; format: cell-based, human; parameters: LDH release: unit not given here; settings: Nec-1f 30 µM
HT1080 cells [4] = assay: CellTiter-Glo luminescent cell viability assay (ATP), dose-response; format: cell-based, human
Description: Cells were plated in an opaque-walled 96-well plate and treatment with ferroptosis inducers and/or ferroptosis inhibitors was initiated 24 h later. […] Here, the reaction agent was directly added to the wells, mixed on an orbital shaker for 2 min, and then incubated at room temperature for 10 min. The luminescence was detected using a Promega GloMax® instrument.

NIH3T3 cells [5] = assay: Ferroptosis inducers (FINs)/ferroptocide, 7-AAD/annexin V flow cytometry; format: cell-based, murine; settings: NIH3T3, 5 µM erastin 24 h, alone (DMSO) or with Fer-1 1 µM, Nec-1s 30 µM, Nec-1f 30 µM
[6] = Stability in human plasma; format: in vitro ADME; settings: 1 µM, 37 °C
Description: Plasma stability is defined as the percentage of parent compound remaining in plasma over the time. Here, incubations were carried out in 5 aliquots of 70 µl each (one for each time point), in duplicates. […] The percentage of the test compounds remaining after incubation in plasma and their half-lives (T1/2) was calculated.

[7] = tested on: primary murine tubular cells; assay: RSL3-induced LDH release of primary kidney tubular cells; format: cell-based; settings: primary kidney tubular cells, RSL3 14 h, alone (DMSO) or with Fer-1 or Nec-1f 30 µM
Description: The LDH release of cells or of freshly isolated kidney tubules was measured according to manufacturers’ instructions at indicated time points. In brief, an aliquot of the supernatant was taken and Lysis Solution was added for 45 min to induce maximal LDH release before another aliquot of the supernatant was taken. Subsequently, the supernatants were incubated with CytoTox 96® Reagent for 15 min protected from light at room temperature before adding Stop Solution. Absorbance was measured at 490 nm.
Generation, cell culture, and induction of cell death in primary murine tubular cells. Murine tubular cells were generated by outgrowth from isolated renal tubules (see above). Primary murine tubules were placed in six-well plates containing Dulbecco’s Modified Eagle Medium F-12 Nutrient Mixture without phenol red (DMEM/F12, Thermo Fisher), supplemented with 0.01 mg/ml recombinant human insulin, 5.5 μg/ml human transferrin, 0.005 μg/ml Na2SeO3 (ITS without linoleic acid, Sigma Aldrich), 50 nM hydrocortisone, 100 U/ml penicillin, and 100 μg/ml streptomycin (Pen/Strep, Thermo Fisher). After two days, the outgrown primary murine tubular cells were washed with PBS and a fresh medium was added. When the number of primary murine tubular cells reached approximately 50% confluence, the cells were removed from the six-well plates using Trypsin-EDTA (Thermo Fisher), washed with medium and a Ficoll Paque Plus (Sigma Aldrich) gradient was performed to remove any dead cells, and debris from the murine renal tubules. Cells were washed twice with PBS and seeded in six-well plates with medium. Once the number of grown cells reached approximately 50% confluence, they were washed with PBS and treated with type 2 FIN: RSL3 (also see Supplementary Table 2 for details). After 14 h, medium and cells were collected and prepared for LDH release assay. Images of the treated primary murine tubular cells were obtained using a 20×/0.30 PH1 objective on a Leica DMi1 microscope.

[8] = both, microsomes, 2 µM, pH 7.4

Structure (SMILES): O=S(=O)(NC1CCCCC1)c1ccc2c(c1)C(=NO)c1cc(S(=O)(=O)NC3CCCCC3)ccc1-2 [FIN56]
- double-negative events (7-AAD/annexin V) ([1]; 10 µM FIN56 24 h): 96.5% and 90.7% and 88.5%
- Induction of ferroptosis (HT1080 cells [2]; HT1080): does not effectively drive ferroptosis
- double-negative events (7-AAD/annexin V) (HT1080 cells [2]; HT1080, 10 µM FIN56 24 h, alone (DMSO) or with Fer-1 1 µM, Nec-1s 30 µM, Nec-1f 30 µM): 85.5% and 85.1% and 86%
- double-negative events (7-AAD/annexin V) (HT1080 cells [2]; HT1080, FIN56 10 µM, 24 h): 95% and 96% and 94%
- double-negative events (7-AAD/annexin V) (HT1080 cells [2]; HT1080, FIN56 10 µM, 48 h): 92% and 90% and 74%
- double-negative events (7-AAD/annexin V) (HT1080 cells [2]; HT1080, FIN56 20 µM, 24 h): 92% and 93%
- double-negative events (7-AAD/annexin V) (HT1080 cells [2]; HT1080, FIN56 20 µM, 48 h): 93% and 92% and 89% and 71%
- double-negative events (7-AAD/annexin V) (HT1080 cells [2]; HT1080, FIN56 50 µM, 24 h): 85% and 92% and 93%
- double-negative events (7-AAD/annexin V) (HT1080 cells [2]; HT1080, FIN56 50 µM, 48 h): 83% and 87% and 78% and 65%
- double-negative events (7-AAD/annexin V) (HT1080 cells [2]; HT1080, FIN56 100 µM, 24 h): 85% and 86% and 80%
- double-negative events (7-AAD/annexin V) (NIH3T3 cells [3]): 87.6% and 95% and 90.3%
- LDH release (CD10-135 cells; CD10-135, FIN56 alone (FIN) or with Fer-1, Nec-1s): 81.45 and 58.7091 and 60.5407
- ATP luminescence (CellTiterGlo) (HT1080 cells [4]; HT1080, inducer at 0.01 µM): 100%
- ATP luminescence (CellTiterGlo) (HT1080 cells [4]; HT1080, inducer at 0.1 µM): 100%
- ATP luminescence (CellTiterGlo) (HT1080 cells [4]; HT1080, inducer at 0.5 µM): 100%
- ATP luminescence (CellTiterGlo) (HT1080 cells [4]; HT1080, inducer at 1 µM): 100%

Structure (SMILES): CCOc1ccccc1-n1c(C(C)N2CCN(C(=O)COc3ccc(Cl)cc3)CC2)nc2ccccc2c1=O (stereo not drawn) [erastin]
- double-negative events (7-AAD/annexin V) (NIH3T3 cells [5]): 10.4% and 3.36% and 6.36% and 2.66%
- double-negative events (7-AAD/annexin V) ([1]; 5 µM erastin 24 h): 51.9% and 85.2% and 80.4% and 71%
- LDH release (CD10-135 cells; CD10-135, erastin alone (FIN) or with Fer-1, Nec-1s): 92.68 and 85.398 and 91.0128
- ATP luminescence (CellTiterGlo) (HT1080 cells [4]; HT1080, inducer at 0.01 µM): 100%
- ATP luminescence (CellTiterGlo) (HT1080 cells [4]; HT1080, inducer at 0.1 µM): 100%
- ATP luminescence (CellTiterGlo) (HT1080 cells [4]; HT1080, inducer at 0.5 µM): 90.0281% and 100%
- ATP luminescence (CellTiterGlo) (HT1080 cells [4]; HT1080, inducer at 1 µM): 57.4401% and 100%
- ATP luminescence (CellTiterGlo) (HT1080 cells [4]; HT1080, inducer at 100 µM): 3.949%
- ATP luminescence (CellTiterGlo) (HT1080 cells [4]; HT1080, inducer at 200 µM): 12.3673% and 20.98%

Structure (SMILES): CC(C)[N+](C)(CCOC(=O)C1c2ccccc2Oc2ccccc21)C(C)C [propantheline, reference compound]
- Human plasma stability, parent compound remaining ([6]; 0 min): 100%
- Human plasma stability, parent compound remaining ([6]; 20 min): 65%
- Human plasma stability, parent compound remaining ([6]; 40 min): 31%
- Human plasma stability, parent compound remaining ([6]; 60 min): 16%
- Human plasma stability, parent compound remaining ([6]; 120 min): 2%

Structure (SMILES): COC(=O)c1ccc([C@@H]2c3[nH]c4ccccc4c3C[C@@H](C(=O)OC)N2C(=O)CCl)cc1 [RSL3]
- double-negative events (7-AAD/annexin V) (HT1080 cells [2]; HT1080, 1.13 µM RSL3 6 h, alone (DMSO) or with Fer-1 1 µM, Nec-1s 30 µM, Nec-1f 30 µM): 61% and 47.8% and 51.8% and 65.7%
- LDH release [7]: 91.18% and 51.15% and 48.12% and 50.73% and 54.44%
- LDH release (CD10-135 cells; CD10-135, RSL3 alone (FIN) or with Fer-1, Nec-1s): 53.16 and 45.5353
- ATP luminescence (CellTiterGlo) (HT1080 cells [4]; HT1080, inducer at 0.01 µM): 100%
- ATP luminescence (CellTiterGlo) (HT1080 cells [4]; HT1080, inducer at 0.1 µM): 100%
- ATP luminescence (CellTiterGlo) (HT1080 cells [4]; HT1080, inducer at 0.113 µM): 100%
- ATP luminescence (CellTiterGlo) (HT1080 cells [4]; HT1080, inducer at 0.5 µM): 30.56% and 28.07% and 28.8%
- ATP luminescence (CellTiterGlo) (HT1080 cells [4]; HT1080, inducer at 1 µM): 18.36% and 19.43% and 14.93%
- ATP luminescence (CellTiterGlo) (HT1080 cells [4]; HT1080, inducer at 1.13 µM): 55.71% and 77.56% and 64%
- ATP luminescence (CellTiterGlo) (HT1080 cells [4]; HT1080, inducer at 5 µM): 11.16% and 17.99% and 22.07%

Structure (SMILES): C[C@@H]1CC[C@@]23C[C@H](O)C(=O)[C@@]2(O)[C@]1(C)[C@H](OC(=O)CCl)C[C@@H](C1=CCn2c(=O)n(-c4ccccc4)c(=O)n2C1)[C@@H]3C [ferroptocide]
- LDH release (CD10-135 cells; CD10-135, ferroptocide alone (FIN) or with Fer-1, Nec-1s): 93.9 and 97.7396
- ATP luminescence (CellTiterGlo) (HT1080 cells [4]; HT1080, inducer at 0.01 µM): 100%
- ATP luminescence (CellTiterGlo) (HT1080 cells [4]; HT1080, inducer at 0.1 µM): 100%
- ATP luminescence (CellTiterGlo) (HT1080 cells [4]; HT1080, inducer at 0.5 µM): 67.8646% and 100%
- ATP luminescence (CellTiterGlo) (HT1080 cells [4]; HT1080, inducer at 50 µM): -0.02481% and 0.12%
- ATP luminescence (CellTiterGlo) (HT1080 cells [4]; HT1080, inducer at 100 µM): 0% and 0.4% and -1.103% and 0.1%
- ATP luminescence (CellTiterGlo) (HT1080 cells [4]; HT1080, inducer at 200 µM): 0% and -0.7765% and 0.13%

Structure (SMILES): CC1(CCO)CC2(CCC(C(C)(C)C)CC2)OO1 (stereo not drawn) [FINO2]
- LDH release (CD10-135 cells; CD10-135, FINO2 alone (FIN) or with Fer-1, Nec-1s): 73.83 and 38.4304 and 67.2452
- ATP luminescence (CellTiterGlo) (HT1080 cells [4]; HT1080, inducer at 0.01 µM): 100%
- ATP luminescence (CellTiterGlo) (HT1080 cells [4]; HT1080, inducer at 0.1 µM): 100%
- ATP luminescence (CellTiterGlo) (HT1080 cells [4]; HT1080, inducer at 0.5 µM): 100%
- ATP luminescence (CellTiterGlo) (HT1080 cells [4]; HT1080, inducer at 1 µM): 100% and 53.72%
- ATP luminescence (CellTiterGlo) (HT1080 cells [4]; HT1080, inducer at 50 µM): 0.7403% and 0.06%
- ATP luminescence (CellTiterGlo) (HT1080 cells [4]; HT1080, inducer at 100 µM): 0% and 0.26% and 0.2% and 0.08%
- ATP luminescence (CellTiterGlo) (HT1080 cells [4]; HT1080, inducer at 200 µM): 0% and 0.3058% and 0.04%

Structure (SMILES): O=C(O)Cc1ccccc1Nc1c(Cl)cccc1Cl [diclofenac, reference compound]
- Human microsomal stability, parent compound remaining ([8]; 0 h): 100%
- Human microsomal stability, parent compound remaining ([8]; 7 min): 62%
- Human microsomal stability, parent compound remaining ([8]; 0.25 h): 26%
- Human microsomal stability, parent compound remaining ([8]; 25 min): 6%
- Human microsomal stability, parent compound remaining ([8]; 40 min): 2%
